Patent US20240376048A1 (Celgene Corporation, priority 2021, published 2024)

Molecular target: S1P5 (Homo sapiens, UniProt Q9H228)
Test: [35S]-GTPγS binding assay (S1P5 agonism), CHO cell membranes
Assay type: biochemical
Conditions: membranes of CHO cells expressing recombinant S1P5 receptors, measure of S1P5 agonism
Method: CHO cells expressing recombinant S1P5 receptors were cultured in 500 cm^2 culture trays and, once confluent, rinsed and detached with cell-lifting buffer (10 mM HEPES, 154 mM NaCl, 6.85 mM EDTA, pH 7.4). Cells were then pelleted by centrifugation, resuspended, and homogenized in membrane preparation buffer (10 mM HEPES and 10 mM EDTA, pH 7.4) using a Polytron PT 1200E homogenizer (Kinematica, Luzern, Switzerland). Cellular proteins were pelleted by centrifugation at 48,000×g at 4° C. for 30 minutes. The resulting supernatant was discarded, and the pellet was re-suspended again in membrane preparation buffer, homogenized for a second time, and then centrifuged again as described above. The final cellular protein pellet was suspended in ice cold resuspension buffer (10 mM HEPES and 0.1 mM EDTA, pH 7.4), divided into aliquots, and stored at −80° C. until use.
Functional binding assays for [^35S]-GTPγS were performed in 96-well non-binding surface plates with a final volume of 200 μL. The test compounds were serially diluted in DMSO and added to assay plates using a Tecan D300E digital printer with a total volume of […]. The control sphingosine-1-phosphate (S1P) was prepared separately by preparing a 400 μM stock solution from a 100 nmol pellet of S1P in 10 mM Na2CO3 with 2% […]. The serial dilution of S1P was done using complete assay buffer (20 mM HEPES, 10 mM MgCl2, 100 mM NaCl, 1 mM EDTA, 0.1% fatty acid free bovine serum albumin (BSA), and 30 μg/mL saponin, pH 7.4) and transferred to wells already containing 0.4 μL DMSO. All the wells were then loaded to a total volume of 40 μL of complete assay buffer, except the non-specific binding (NSB) wells. For NSB wells, 40 μL/well of 50 μM GTPγS (Sigma Aldrich, cat #G8634, St. Louis, MO) was added to wells containing 0.4 μL of DMSO. The assay was started by the addition of 120 μL/well of CHO-SlP receptor membrane solution containing 40 μg/mL of membrane protein, 16.67 μM guanosine diphosphate (GDP; Sigma Aldrich, cat #G7127, St. Louis, MO), and 2.5 mg/mL of WGA PVT SPA beads in complete buffer. Assay plates were then sealed and incubated at room temperature with gentle agitation for 30 minutes. Next, 40 µL/well of 1 nM of [^35S]-GTPγS (PerkinElmer, cat #NEG030X25OUC, Waltham, MA) in basic assay buffer (20 mM HEPES, 10 mM MgCl2, 100 mM NaCl, and 1 mM EDTA, pH7.4) was added to the assay plates to yield a final concentration of 200 pM and the plates were further incubated for 40 minutes at room temperature with gentle agitation. The assay was terminated by centrifugation of the plates at 1000 rpm for 3 minutes using an Eppendorf 5810R centrifuge (Eppendorf, Hamburg, Germany) and G protein bound radioactivity was quantitated using a MicroBeta2 microplate scintillation counter (PerkinElmer, Waltham, MA). As G protein bound radioactivity directly correlates to receptor activation and coupling to the G protein, this assay is a measure of S1P5 agonism.

Sequence of S1P5 (Q9H228 whole entry, species assumed): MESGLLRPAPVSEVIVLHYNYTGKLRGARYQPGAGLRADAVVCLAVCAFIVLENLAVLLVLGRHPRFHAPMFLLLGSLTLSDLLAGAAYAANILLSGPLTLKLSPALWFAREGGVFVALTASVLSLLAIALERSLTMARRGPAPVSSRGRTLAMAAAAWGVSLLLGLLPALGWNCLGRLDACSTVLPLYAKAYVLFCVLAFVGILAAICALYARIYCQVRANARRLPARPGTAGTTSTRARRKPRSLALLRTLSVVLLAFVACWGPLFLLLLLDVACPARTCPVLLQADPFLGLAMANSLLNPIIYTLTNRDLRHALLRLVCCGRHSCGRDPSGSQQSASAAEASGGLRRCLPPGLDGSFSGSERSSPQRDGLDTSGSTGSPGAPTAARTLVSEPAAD

EC50	Compound
100 to 1000 nM	O=C(O)[C@H]1[C@@H]2CN(C3CCc4cc(OCc5c(Cl)cccc5Cl)ccc43)C[C@@H]21 (stereo partly drawn) [Compound 22, (1R,5S,6r)-3-(5-((2,6-dichlorobenzyl)oxy)-2,3-dihydro-1H-inden-1-yl)-3-azabicyclo[3.1.0]hexane-6-carboxylic acid]
10 to 100 nM	O=C(O)C1CN(C2CCc3cc(OCc4ccc(F)c(Cl)c4)ccc32)C1 (centres unmarked) [Compound 16, 1-(5-((3-chloro-4-fluorobenzyl)oxy)-2,3-dihydro-1H-inden-1-yl)azetidine-3-carboxylic acid]
10 to 100 nM	O=C(O)C1CN(C2CCc3cc(OCc4cccc(F)c4)ccc32)C1 (centres unmarked) [Compound 12, 1-(5-((3-fluorobenzyl)oxy)-2,3-dihydro-1H-inden-1-yl)azetidine-3-carboxylic acid]
10 to 100 nM	O=C(O)C1CN(C2CCc3cc(OCc4cccc(I)c4)ccc32)C1 (centres unmarked) [Compound 20, 1-(5-((3-iodobenzyl)oxy)-2,3-dihydro-1H-inden-1-yl)azetidine-3-carboxylic acid]
100 to 1000 nM	O=C(O)C1CN(C2CCc3cc(OCc4ccc(I)cc4)ccc32)C1 (centres unmarked) [Compound 21, 1-(5-((4-iodobenzyl)oxy)-2,3-dihydro-1H-inden-1-yl)azetidine-3-carboxylic acid]
≤ 1 nM	O=C(O)C1CCN(C2CCc3c2ccc(OCc2c(Cl)cccc2Cl)c3F)CC1 (centres unmarked) [Compound 34, 1-(5-((2,6-dichlorobenzyl)oxy)-4-fluoro-2,3-dihydro-1H-inden-1-yl)piperidine-4-carboxylic acid]
10 to 100 nM	O=C(O)C1CN(C2CCc3cc(OCc4ccc(C5CC5)c(Cl)c4)ccc32)C1 (centres unmarked) [Compound 10, 1-(5-((3-chloro-4-cyclopropylbenzyl)oxy)-2,3-dihydro-1H-inden-1-yl)azetidine-3-carboxylic acid]
10 to 100 nM	CC1(C)CC(N2CCC(C(=O)O)CC2)c2ccc(OCc3c(Cl)cccc3Cl)cc21 (centres unmarked) [Compound 39]
1 to 10 nM	O=C(O)[C@@H]1[C@@H]2CN(C3CCc4cc(OCc5c(Cl)cccc5Cl)ccc43)C[C@@H]21 (stereo partly drawn) [Compound 23, (1R,5S,6s)-3-(5-((2,6-dichlorobenzyl)oxy)-2,3-dihydro-1H-inden-1-yl)-3-azabicyclo[3.1.0]hexane-6-carboxylic acid]
1 to 10 nM	O=C(O)[C@@H]1CCN(C2CCc3cc(OCc4c(Cl)cccc4Cl)ccc32)C1 (single isomer, unassigned) [Compound 25a]
10 to 100 nM	CC1CC(C(=O)O)CC(C)N1C1CCc2cc(OCc3c(Cl)cccc3Cl)ccc21 (centres unmarked) [Compound 31, 1-(5-((2,6-dichlorobenzyl)oxy)-2,3-dihydro-1H-inden-1-yl)-2,6-dimethylpiperidine-4-carboxylic acid]
